Data as given in BindingDB's records for patent US20240425524 (Merck Sharp & Dohme, 2024).

Target: T1, Receptor-interacting serine/threonine-protein kinase 1 (Homo sapiens, UniProt Q13546)
T1 sequence (Q13546 whole entry): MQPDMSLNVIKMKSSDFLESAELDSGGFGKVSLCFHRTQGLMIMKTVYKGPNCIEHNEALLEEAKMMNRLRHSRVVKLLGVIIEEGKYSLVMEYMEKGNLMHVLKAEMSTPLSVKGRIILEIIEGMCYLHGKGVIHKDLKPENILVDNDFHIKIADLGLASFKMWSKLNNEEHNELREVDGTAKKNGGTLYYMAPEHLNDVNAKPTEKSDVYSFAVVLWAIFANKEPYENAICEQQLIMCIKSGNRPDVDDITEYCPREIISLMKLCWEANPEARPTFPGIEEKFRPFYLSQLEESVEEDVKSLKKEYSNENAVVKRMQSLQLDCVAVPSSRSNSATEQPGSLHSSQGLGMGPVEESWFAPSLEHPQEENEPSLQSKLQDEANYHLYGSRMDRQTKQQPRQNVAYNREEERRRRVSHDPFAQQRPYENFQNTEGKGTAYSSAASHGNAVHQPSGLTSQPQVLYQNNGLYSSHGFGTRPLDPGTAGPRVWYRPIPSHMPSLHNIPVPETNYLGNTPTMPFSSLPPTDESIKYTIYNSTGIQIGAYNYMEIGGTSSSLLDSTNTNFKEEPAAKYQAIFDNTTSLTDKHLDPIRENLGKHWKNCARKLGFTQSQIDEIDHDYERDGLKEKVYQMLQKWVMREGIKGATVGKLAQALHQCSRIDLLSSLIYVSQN
Assay: RIPK1-ADP-Glo Enzymatic Assay
Method: In this assay, the potency (EC50) of each compound was determined from a ten-point (1:3 serial dilution: top compound concentration of 100000 nM) titration curve using the following outlined procedure. To each well of a white ProxiPlus 384 well-plate, 30 nL of compound (1% DMSO in final assay volume of 3 μL) was dispensed, followed by the addition of 2 μL of 1x assay buffer (25 mM Hepes 7.3, 20 mM MgCl2, 50 mM NaCl, 1 mM DTT, 0.005% Tween20, and 0.02% BSA) containing 37.5 nM of GST-RIPK1 (recombinant GST-RIPK1 kinase domain (residues 1-327) enzyme produced from baculovirus-transfected Sf21 cells: MW=62 kDa). Plates were placed in an ambient temperature humidified chamber for a 30 minutes pre-incubation with compound. Subsequently, each reaction was initiated by the addition of 1 μL 1× assay buffer containing 900 μM ATP and […]. The final reaction in each well of 3 μL consists of 25 nM of GST-RIPK1, 300 µM ATP, and 3 μM dephosphorylated-MBP. Kinase reactions were allowed to proceed for 150 minutes prior to adding ADP-Glo reagents per Promega's outlined kit protocol. Dose-response curves were generated by plotting percent effect (% product conversion: Y-axis) vs. Logio compound concentrations (X-axis).

| SMILES | EC50 [nM] |
| --- | --- |
| O=C1N2[C@H](c3cc(F)cc(F)c3)CCN2CC12CCN(c1cc(Cl)c(F)cn1)CC2 [US20240425524, Example 1.10] | 10 |
| Cc1csc2ncnc(N3CCC4(CC3)CN3CC[C@@H](c5cc(F)cc(F)c5)N3C4=O)c12 [US20240425524, Example 1.15] | 17 |
